{
  "source": "paper PMC7288168",
  "about": "“Synthesis and Cytotoxic Activity of Chiral Sulfonamides Based on the 2-Azabicycloalkane Skeleton” (Molecules, 2020)",
  "origin": "cited, not measured here",
  "tested_on": "D425 cells",
  "set-up": "method as in von Bueren et al. [31]",
  "details": "known chemotherapeutics in D425 cells; ref von Bueren et al. [31]; cited from earlier work",
  "data": [
    {"smiles": "COc1cc([C@@H]2c3cc4c(cc3[C@@H](O[C@@H]3O[C@@H]5CO[C@@H](C)O[C@H]5[C@H](O)[C@H]3O)[C@H]3COC(=O)[C@H]23)OCO4)cc(OC)c1O", "note": "[etoposide]", "values": [
      {"measurement": "LD50 D425", "result": 8, "unit": "µM"}
    ]}
  ]
}
